# How the values were obtained:
# Nociceptin receptor [1] = target: T1, Nociceptin receptor (Homo sapiens, UniProt P41146); assay: Displacement of [3H]]nociceptin from human ORL1 receptor high affinity binding site expressed in African green monkey COS7 cells after 90 mins by topcount analysis
# Nociceptin receptor [2] = target: T1, Nociceptin receptor; assay: Displacement of [3H]]nociceptin from human ORL1 receptor low affinity binding site expressed in African green monkey COS7 cells after 90 mins by topcount analysis
# Nociceptin receptor [3] = target: T1, Nociceptin receptor; assay: Partial agonist activity at human ORL1 receptor expressed in African green monkey COS7 cells after 90 mins by topcount analysis; assay type: cell-based; settings: COS-7
# Nociceptin receptor [4] = target: T1, Nociceptin receptor; assay: Displacement of [3H]]nociceptin from human ORL1 receptor expressed in African green monkey COS7 cells after 90 mins by topcount analysis; assay type: cell-based, COS-7
# Nociceptin receptor [5] = target: T1, Nociceptin receptor; assay: Binding affinity to human ORL1 receptor expressed in African green monkey COS7 cells assessed per mg protein after 90 mins by Scatchard plot analysis; assay type: cell-based, COS-7
# Nociceptin receptor [6] = target: T1, Nociceptin receptor; assay: Displacement of [3H]isoVa-RYYRIK-NH2 from human ORL1 receptor expressed in African green monkey COS7 cells after 90 mins by topcount analysis; assay type: cell-based, COS-7
# T1 sequence (P41146 whole entry): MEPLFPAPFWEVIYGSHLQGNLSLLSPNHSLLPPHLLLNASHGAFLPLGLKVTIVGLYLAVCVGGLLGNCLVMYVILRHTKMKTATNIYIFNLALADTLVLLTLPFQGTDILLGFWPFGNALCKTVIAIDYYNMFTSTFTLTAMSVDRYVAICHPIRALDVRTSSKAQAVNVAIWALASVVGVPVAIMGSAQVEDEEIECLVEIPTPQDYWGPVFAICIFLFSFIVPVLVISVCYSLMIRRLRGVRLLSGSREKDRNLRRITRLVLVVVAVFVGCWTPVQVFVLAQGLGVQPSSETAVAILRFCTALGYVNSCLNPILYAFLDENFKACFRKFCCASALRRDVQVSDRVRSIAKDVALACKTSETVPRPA
SMILES,IC50 (Nociceptin receptor [1]),IC50 (Nociceptin receptor [2]),Activity (Nociceptin receptor [3]),IC50 (Nociceptin receptor [4]),Kd (Nociceptin receptor [5]),IC50 (Nociceptin receptor [6])
CC[C@H](C)[C@H](NC(=O)[C@H](CCCNC(=N)N)NC(=O)[C@H](Cc1ccc(O)cc1)NC(=O)[C@H](Cc1ccc(O)cc1)NC(=O)[C@H](CCCNC(=N)N)NC(=O)C(C)C)C(=O)N[C@@H](CCCCN)C(N)=O,0.059 nM,1.67 nM,14%,,,
CCC(=O)N[C@@H](CCCNC(=N)N)C(=O)N[C@@H](Cc1ccc(O)cc1)C(=O)N[C@@H](Cc1ccc(O)cc1)C(=O)N[C@@H](CCCNC(=N)N)C(=O)N[C@H](C(=O)N[C@@H](CCCCN)C(N)=O)[C@@H](C)CC,,,46%,1.39 nM,,
[3H]C(C(=O)N[C@@H](CCCNC(=N)N)C(=O)N[C@@H](Cc1ccc(O)cc1)C(=O)N[C@@H](Cc1ccc(O)cc1)C(=O)N[C@@H](CCCNC(=N)N)C(=O)N[C@H](C(=O)N[C@@H](CCCCN)C(N)=O)[C@@H](C)CC)C([3H])(C)C (stereo partly specified),,,,,1.21 nM,
CC[C@H](C)[C@H](NC(=O)[C@H](CCCN=C(N)N)NC(=O)[C@H](Cc1ccc(O)cc1)NC(=O)[C@H](Cc1ccc(O)cc1)NC(=O)[C@H](CCCN=C(N)N)NC(C)=O)C(=O)N[C@@H](CCCCN)C(N)=O,,,60%,,,
CC[C@H](C)[C@H](NC(=O)[C@H](CCCNC(=N)N)NC(=O)[C@H](Cc1ccc(O)cc1)NC(=O)[C@H](Cc1ccc(O)cc1)NC(=O)[C@H](CCCNC(=N)N)NC(=O)CC(C)C)C(=O)N[C@@H](CCCCN)C(N)=O,0.033 nM,8.51 nM,0%,,,2.15 nM

# From ChEMBL document CHEMBL3351468, “Tritium-labelled isovaleryl-RYYRIK-NH2 as potential antagonist probe for ORL1 nociceptin receptor” (Bioorg Med Chem, 2014)
